#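 A five-concentration, 48-hour dose response in 96-well plates underlies each endpoint, interpolated linearly between surrounding concentrations. At the GI50, growth is halved.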 Calls of active or inactive are those of the source. No stated cut-off is given here; in the data, active = GI50 up to about 1.1 µM and inactive = higher.
# Assays:
# Assay in all cases: inhibition of tumour cell growth, NCI panel, 48 h
# SN12C = system: SN12C
# HCT-15 = system: HCT-15
# U-251 = system: U-251
# 786-0 = system: 786-0
# MOLT-4 = system: MOLT-4
# NCI-H226 = system: NCI-H226
# SK-OV-3 = system: SK-OV-3
# HCC 2998 = system: HCC 2998
# SK-MEL-28 = system: SK-MEL-28
# SK-MEL-2 = system: SK-MEL-2
# SF-268 = system: SF-268
# SK-MEL-5 = system: SK-MEL-5
# A498 = system: A498
# SNB-19 = system: SNB-19
# A549 = system: A549
# Malme-3M = system: Malme-3M
# EKVX = system: EKVX
SMILES,GI50 (SN12C),GI50 (HCT-15),GI50 (U-251),GI50 (786-0),GI50 (MOLT-4),GI50 (NCI-H226),GI50 (SK-OV-3),GI50 (HCC 2998),GI50 (SK-MEL-28),GI50 (SK-MEL-2),GI50 (SF-268),GI50 (SK-MEL-5),GI50 (A498),GI50 (SNB-19),GI50 (A549),GI50 (Malme-3M),GI50 (EKVX)
Cc1ccc([S+]([O-])C(C)C(Cl)c2ccccc2)cc1 (configuration not stated),> 100 µM (inactive),> 100 µM,35.6 µM (inactive),> 100 µM (inactive),55.7 µM (inactive),> 100 µM (inactive),> 100 µM (inactive),> 100 µM (inactive),> 100 µM (inactive),> 100 µM (inactive),> 100 µM (inactive),43.6 µM (inactive),> 100 µM (inactive),–,–,–,–
N#Cc1c2ccccc2cn1-c1ccc(F)cc1,–,> 10 µM,39.1 µM (inactive),30.3 µM (inactive),27.4 µM (inactive),9.27 µM (inactive),–,43.9 µM (inactive),47.8 µM (inactive),> 10 µM (inactive),24.5 µM (inactive),> 10 µM (inactive),–,22.4 µM (inactive),24.6 µM (inactive),33.7 µM (inactive),–
CC(=O)NC1C(OCc2ccccc2)OC(COC(=O)CCCCCCCCCCNC(=O)c2cccc3c(=O)c4ccccc4[nH]c23)C(O)C1OC(C)C(=O)NC(C)C(=O)NC(CCC(N)=O)C(N)=O (configuration not stated),> 100 µM (inactive),85.3 µM,69.5 µM (inactive),> 100 µM (inactive),47.1 µM (inactive),38.7 µM (inactive),> 100 µM (inactive),–,47.3 µM (inactive),50.8 µM (inactive),> 100 µM (inactive),37.4 µM (inactive),98.6 µM (inactive),47.3 µM (inactive),40.9 µM (inactive),–,> 100 µM (inactive)
[N-]=[N+]=NC1C(Br)C(=O)NC(=O)N1[C@H]1C[C@H](O)[C@@H](CO)O1 (some centres not stated),> 100 µM (inactive),–,> 100 µM (inactive),> 100 µM (inactive),> 100 µM (inactive),–,> 100 µM (inactive),> 100 µM (inactive),> 100 µM (inactive),> 100 µM (inactive),> 100 µM (inactive),–,> 100 µM (inactive),> 100 µM (inactive),> 100 µM (inactive),–,> 100 µM (inactive)
Cc1cc2c([nH]c3ccccc32)c2c1OC(C)(C)C1C3CC(C)(C)Oc4c(C)cc5c6ccccc6n(c5c43)C21 (configuration not stated),> 100 µM (inactive),> 100 µM,> 100 µM (inactive),> 100 µM (inactive),> 100 µM (inactive),–,> 100 µM (inactive),> 100 µM (inactive),> 100 µM (inactive),> 100 µM (inactive),> 100 µM (inactive),> 100 µM (inactive),> 100 µM (inactive),> 100 µM (inactive),> 100 µM (inactive),> 100 µM (inactive),> 100 µM (inactive)
N/N=c1\c2ccccc2c2cc3c(cc12)/c(=N/N)c1ccccc13,> 100 µM (inactive),> 100 µM,> 100 µM (inactive),> 100 µM (inactive),> 100 µM (inactive),> 100 µM (inactive),> 100 µM (inactive),> 100 µM (inactive),> 100 µM (inactive),> 100 µM (inactive),> 100 µM (inactive),> 100 µM (inactive),–,> 100 µM (inactive),> 100 µM (inactive),> 100 µM (inactive),> 100 µM (inactive)
O=C(CSc1nnc(-c2ccc(/N=C\c3ccc(Cl)cc3)cc2)o1)Nc1ccc(Cl)cc1,> 100 µM (inactive),> 100 µM,> 100 µM (inactive),> 100 µM (inactive),> 100 µM (inactive),> 100 µM (inactive),> 100 µM (inactive),–,> 100 µM (inactive),> 100 µM (inactive),> 100 µM (inactive),> 100 µM (inactive),–,> 100 µM (inactive),> 100 µM (inactive),> 100 µM (inactive),> 100 µM (inactive)
N#C/C(=C/c1cccnc1)C(=O)c1ccccc1,> 100 µM (inactive),> 100 µM,> 100 µM (inactive),> 100 µM (inactive),> 100 µM (inactive),> 100 µM (inactive),> 100 µM (inactive),> 100 µM (inactive),> 100 µM (inactive),> 100 µM (inactive),> 100 µM (inactive),> 100 µM (inactive),–,> 100 µM (inactive),> 100 µM (inactive),> 100 µM (inactive),> 100 µM (inactive)
CSc1nc(SC)c2c(C(N)=S)n[nH]c2n1,36.3 µM (inactive),36.2 µM,23 µM (inactive),28.4 µM (inactive),27 µM (inactive),19.9 µM (inactive),23.6 µM (inactive),–,31.7 µM (inactive),24 µM (inactive),31.2 µM (inactive),17.9 µM (inactive),24.5 µM (inactive),27.1 µM (inactive),23 µM (inactive),29.8 µM (inactive),22.2 µM (inactive)
Cc1cc2c(c3nocc13)C(=O)c1ccccc1C2=O,> 100 µM (inactive),> 100 µM,> 100 µM (inactive),> 100 µM (inactive),> 100 µM (inactive),–,> 100 µM (inactive),> 100 µM (inactive),> 100 µM (inactive),> 100 µM (inactive),> 100 µM (inactive),> 100 µM (inactive),–,> 100 µM (inactive),> 100 µM (inactive),> 100 µM (inactive),> 100 µM (inactive)
O=c1c2ccccc2nc(-c2ccccc2)n1NC(=S)Nc1ccc(Cl)cc1,> 100 µM (inactive),> 100 µM,> 100 µM (inactive),> 100 µM (inactive),69 µM (inactive),96.6 µM (inactive),> 100 µM (inactive),–,24.1 µM (inactive),> 100 µM (inactive),> 100 µM (inactive),36.9 µM (inactive),> 100 µM (inactive),–,59.7 µM (inactive),> 100 µM (inactive),–
S=c1cc(S)c2c(=S)sc3nc4ccccn4c(=S)c3c2s1,48.8 µM (inactive),49.8 µM,54.5 µM (inactive),75.5 µM (inactive),27.2 µM (inactive),> 100 µM (inactive),–,39.5 µM (inactive),> 100 µM (inactive),56.2 µM (inactive),–,38.5 µM (inactive),> 100 µM (inactive),52.5 µM (inactive),> 100 µM (inactive),> 100 µM (inactive),81.8 µM (inactive)
CC[S+](C)c1ccc(-c2c3nc(c(-c4ccc([S+](C)CC)cc4)c4ccc([nH]4)c(-c4ccc([S+](C)CC)cc4)c4nc(c(-c5ccc([S+](C)CC)cc5)c5ccc2[nH]5)C=C4)C=C3)cc1.[O-][Cl+3]([O-])([O-])[O-].[O-][Cl+3]([O-])([O-])[O-].[O-][Cl+3]([O-])([O-])[O-].[O-][Cl+3]([O-])([O-])[O-] (configuration not stated),16.8 µM (inactive),19.3 µM,16.6 µM (inactive),27.7 µM (inactive),20 µM (inactive),–,30.4 µM (inactive),–,18.9 µM (inactive),18.2 µM (inactive),21.8 µM (inactive),24.7 µM (inactive),36.6 µM (inactive),93.8 µM (inactive),18.5 µM (inactive),4.4 µM (inactive),11 µM (inactive)
